Assays:
Format in all cases: physicochemical
[1] = Speed of dissolution in DVS resin/mesitylene; settings: shaken at room temperature
Procedure: BAC-E, up to four weight percent, is added to a mixture of 45 weight percent DVS resin in mesitylene and shaken at room temperature. The BAC-E dissolves in thirty minutes. BAC-M, at 2.0 weight percent is added to a mixture of 45 weight percent DVS resin in mesitylene and shaken at room temperature. The BAC-M requires more than eight hours of shaking to dissolve.

[2] = Storage at -15° C., precipitate formation
Procedure: A formulation containing 3.6 weight percent BAC-E in a mixture of 45 weight percent DVS resin in mesitylene is stored for more than five months at −15° C. […] A formulation containing 4.05 weight percent BAC-E in a mixture of 45 weight percent DVS resin in mesitylene is stored at −15° C. A precipitate forms in three days. A formulation containing 2.0 weight percent BAC-M in a mixture of 45 weight percent DVS resin in mesitylene is stored at −15° C. A precipitate forms in less than ten days.

[3] = Solubility of bis azides in mesitylene and in DVS resin/mesitylene mixture; settings: for Solubility In Mesitylene: in mesitylene at 25° C.; for Solubility In Mixture: mixture of 45 weight percent DVS resin in mesitylene at 10° C., weight percent based on total weight of mixture
Procedure: The solubility of various bis azides are determined in mesitylene at 25° C. and in a mixture of 45 weight percent DVS resin in mesitylene at 10° C. The results are shown in Table I. BAC-M is 2,6-bis(4-azidobenzylidene)-4-methylcyclohexanone and differs from the bis azide of the invention by having a methyl substituent on the cyclohexanone ring instead of ethyl. BAC-P is 2,6-bis(4-azidobenzylidene)-4-n-propyl cyclohexanone and differs from the bis azide of the invention by having an n-propyl substituent on the cyclohexanone ring instead of ethyl. The weight percent in the mixture is calculated based on the total weight of mixture.

Solubility In Mesitylene [3]	Solubility In Mixture [3]	time of shaking to dissolve ([1]; 2.0 weight percent in 45 weight percent DVS resin in mesitylene)	time until a precipitate forms ([2]; 2.0 weight percent BAC-M in 45 weight percent DVS resin in mesitylene, stored at -15° C.)	SMILES	time to dissolve ([1]; up to four weight percent in 45 weight percent DVS resin in mesitylene)	precipitate formation on storage ([2]; 3.6 weight percent BAC-E in 45 weight percent DVS resin in mesitylene, stored more than five months at -15° C.)
1.7 g/100 mL	1.0 Wt %	more than eight	less than ten	CC1CC(=Cc2ccc(N=[N+]=[N-])cc2)C(=O)C(=Cc2ccc(N=[N+]=[N-])cc2)C1 (stereo not shown) [BAC-M, 2,6-bis(4-azidobenzylidene)-4-methylcyclohexanone]	–	–
3.5 g/100 mL	1.7 Wt %	–	–	CCCC1CC(=Cc2ccc(N=[N+]=[N-])cc2)C(=O)C(=Cc2ccc(N=[N+]=[N-])cc2)C1 (stereo not shown) [BAC-P, 2,6-bis(4-azidobenzylidene)-4-n-propyl cyclohexanone]	–	–

SMILES	Solubility In Mesitylene [3]	Solubility In Mixture [3]	time of shaking to dissolve ([1]; 2.0 weight percent in 45 weight percent DVS resin in mesitylene)	time until a precipitate forms ([2]; 2.0 weight percent BAC-M in 45 weight percent DVS resin in mesitylene, stored at -15° C.)	time to dissolve ([1]; up to four weight percent in 45 weight percent DVS resin in mesitylene)	precipitate formation on storage ([2]; 3.6 weight percent BAC-E in 45 weight percent DVS resin in mesitylene, stored more than five months at -15° C.)
CCC1C/C(=C\c2ccc(N=[N+]=[N-])cc2)C(=O)/C(=C/c2ccc(N=[N+]=[N-])cc2)C1 (stereo not shown) [BAC-E, 2,6-bis(4-azidobenzylidene)-4-ethylcyclohexanone]	14 g/100 mL	10.4 Wt %	–	–	thirty	No precipitate forms

From patent US6727038B1, “Photodefineable compositions” (Dow Global Technologies Inc., priority 1995, dated 2004)
